{"source": "paper PMC7911889", "about": "(Viruses, 2021)", "target": "SARS-CoV-2 3CL^pro (Severe acute respiratory syndrome coronavirus 2, UniProt P0DTD1)", "type": "cell-based", "data": [{"substance": "GRL-0496", "values": [{"measurement": "Effect on luciferase reporter activity / 3CL^pro inhibition (in words)", "result": "clearly inhibited SARS-CoV-2 3CL^pro"}]}]}
